Where two headings read alike, the source gives them in different places.
Experiments:
SH-SY5Y cells = assay type: cell-based, human
Protocol: (§1) SH-SY5Y human neuroblastoma cells were obtained from the American Tissue Culture Collection (www.atcc.org) and maintained in culture in a replicating state. For caspase assays and cytochrome C release studies they were grown in T75 flasks with DMEM/high glucose containing 10% fetal bovine serum, antibiotic/antimicotic (100 IU/ml of penicillin, 100 μg/ml of streptomycin sulfate, 0.25 μg/ml of amphotericin B) and 50 μg/ml of uridine and 100 μg/ml of pyruvate in a 5% CO2 atmosphere at 37° C. to approximately full confluence (2×10^7 cell/flask). They were then incubated with 5 mM methylpyridinium iodide (MPP+; Sigma; www.sigma-aldrich.com) or 100 μM 25–35 or 35–25 beta amyioid peptides (Bachem; www.bachem.com) for varying times, then harvested. For cell death studies, the cells were plated into 96 well black-bottom plates and grown for 24 hours in DMEM media before being exposed to toxin.
Cell death was estimated by measuring loss of calcein retention with the “Live-Dead” assay (Molecular Probes; www.molecularprobes.com) in cells grown in 96 well plates and incubated with calcein-AM, according to manufacturer's instructions. Calcein signals were assayed in a SpectraMax Gemini adjustable fluorescent plate reader (Molecular Devices). Calcein fluorescence from cells preincubated with methanol was subtracted from all readings as background. Each assay was performed with 8 wells/condition, which were averaged. 3–8 independent experiments were performed to evaluate a broad range of concentrations of S(−) and R(+) PPX in this paradigm.
(§2) R(+) and S(−) PPX (gifts of Pharmacia Corporation) were obtained as their dihydrochloride salts and dissolved directly into culture media. Bongkreckic acid, an antagonist of the ATP binding site on the adenine nucleotide translocator, was provided as a solution in 1M NH4OH. Aristolochic acid (sodium salt), a phospholipase A2 inhibitor, was obtained from Sigma Chemical Co. In the caspase experiments, drugs were added 1 hour before MPP+ or beta amyloid peptide. In the calcein/cell death experiments, drugs were added 4 hours before MPP+.

caspase 3 [1] = assay type: cell-based, human
Protocol: as §1
(§3) After exposure to MPP+ or beta amyloid peptide, cells were collected in PBS and centrifuged at 450×g for 6 minutes at 4° C. Cell pellets were resuspended in a hypotonic cell lysis buffer [25 mM HEPES, 5 mM MgCl2, 5 mM EDTA, […] and protease inhibitor cocktail (Sigma Chemical)] at a concentration of 2×10^7 cells/100 μl of lysis buffer. Lysates were subjected to four cycles of freezing and thawing. Cell lysates were then centrifuged at 16,000×g for 30 minutes at 4° C. The supernatant fractions were collected, and protein content was measured by Lowry assay (BioRad). 100 μg of protein was used to measure caspase activity in 96 well plates and was assayed in quadruplicate. The activity was measured using the assay buffer and the protocol provided by the manufacturers. (Biomol, caspase 3; Promega, caspases 3 and 9). […] Chromogen absorbance (p-NA) was measured on an OptiMax plate reader or chromogen fluorescence (AMC) on a SpectraMax Gemini plate reader at zero time and after 30 minutes of incubation at 37 degrees to estimate relative caspase activities. Chromogen signal at zero time was subtracted from the readings at 30 minutes.
as §2

[2] = 8 week toxicology study in mice, pathology of major organs; assay type: in vivo; settings: drinking water, 8 weeks
Protocol: Toxicology studies have also been conducted and no evidence of adverse effects were detected. In particular, an 8 week toxicology study was performed in the mice given R(+) PPX in their drinking water.

[3] = relative to S(−) pramipexole; cited from earlier work
oxidative stress [4] = assay: MPTP-induced forebrain oxidative stress (2,3-DHBA) in mice; assay type: in vivo, C57BL/6 mice; settings: MPTP 30 mg/kg s.c.
Protocol: Male C57BL/6 mice received daily R(+) pramipexole dihydrochloride in drinking water for 8 weeks at doses calculated to provide 0, 10, 30 or 100 mg/kg/day. On the day of the study the mice were injected with 30 mg/kg s.c. of the neurotoxin N-methyl-4-phenyl-1,2,3,6-tetrahydropyridine (MPTP) to increase oxidative stress in the brain. One hour later the mice were injected with 100 mg/kg i.p. of sodium salicylate. One hour after salicylate injection the mice were killed and forebrains analyzed for 2,3-dihydroxybenzoic acid (2,3-DHBA) content.

caspase 9 = assay type: cell-based, human
Protocol: as §1, §3, §2

[5] = system: D2 family dopamine receptors; settings: cited from earlier work
caspase 3 [6] = settings: SH-SY5Y
Protocol: as §1, with “For cell death studies, the cells were plated into 96 well black-bottom plates and grown for 24 hours in DMEM media before being exposed to toxin.” left out
After exposure to MPP+ or beta amyloid peptide, cells were collected in PBS and centrifuged at 450×g for 6 minutes at 4° C. […] The supernatant fractions were collected, and protein content was measured by Lowry assay (BioRad). […] The activity was measured using the assay buffer and the protocol provided by the manufacturers. […] Chromogen absorbance (p-NA) was measured on an OptiMax plate reader or chromogen fluorescence (AMC) on a SpectraMax Gemini plate reader at zero time and after 30 minutes of incubation at 37 degrees to estimate relative caspase activities. Chromogen signal at zero time was subtracted from the readings at 30 minutes. […]

[7] = ALS subjects who completed dose escalation, 3–6 mg per day
Protocol: Following acquisition of these baseline samples, SALS participants began pramipexole therapy. Dosage escalation was performed similar to PD patients with an attempt made to reach 1.5 mg t.i.d.-q.i.d. as the final dose, following a 7 week titration.

oxidative stress [8] = settings: 12 SALS subjects
Protocol: The present study was conducted in two phases. […] These participants underwent aspirin loading with subsequent 2,3-DHBA analysis. After receiving 1.3 grams of aspirin po, blood was drawn 2, 3, and 4 hours later. Serum was separated, frozen and stored at −80 degrees. Aliquots of serum were subsequently coded and blinded for 2,3-DHBA and salicylate assays.
The subjects received 1.3 grams of aspirin po, and blood was drawn 3 hours later. Following acquisition of these baseline samples, SALS participants began pramipexole therapy. Dosage escalation was performed similar to PD patients with an attempt made to reach 1.5 mg t.i.d.-q.i.d. as the final dose, following a 7 week titration. After each participant was on his/her highest pramipexole dose for three weeks, the aspirin loading study was performed once again. […] Each participant was then offered the opportunity to continue with pramipexole treatment.
Preparation of serum: 0.9 ml of serum at 4° C. was mixed with 0.2 ml of 1 M perchloric acid and centrifuged at 15,000 rpm for 10 minutes in a refrigerated microcentrifuge.
Assay for 2,3-DHBA: 20 uL of supernatant were injected in duplicate onto a C18 “Catecholamine” Adsorbosphere column (Alltech) perfused at 0.6 ml/min with buffer consisting of 125 ml/L acetonitrile, 1.5 gn/L of sodium heptane sulfonate, 3 ml/L triethylamine, 100 mg/L of Na2 EDTA with final pH adjusted to 2.8 with phosphoric acid. Detection utilized a CouloChem II flow-through electrochemical detector (ESA, with the following settings: guard cell=+600 mV; E1=−100 mV; E2=+400 mV). 2,3-DHBA eluted at 10–10.5 minutes under these conditions.
Assay for salicylate: 50 uL of supernatant were injected in duplicate onto a C8 Kromosil HPLC column (Alltech) perfused at 0.8–1.0 ml/min with 70% methanol/30% water/0.5% trifluoroacetic acid. Salicylate eluted at 6–7 minutes under these conditions and was detected by ultraviolet absorption at 315 nm.

C[n+]1ccc(-c2ccccc2)cc1.[I-] [MPP+, methylpyridinium iodide]
reduction of calcein uptake (SH-SY5Y cells; SH-SY5Y, 5 mM MPP+ alone, 24 hours): about 60% | increase of caspase 3 activity (caspase 3 [1]; SH-SY5Y, 5 mM MPP+, by 24 hours): about 2 fold

CCCN[C@@H]1CCc2nc(N)sc2C1.Cl.Cl [R(+) PPX, R(+)-2-amino-4,5,6,7-tetrahydro-6-propylaminobenzathiazole dihydrochloride]
pathological examination of all major organs [2]: no lesions were found | potency to produce the side effects that result from the use of S(−) pramipexole [3]: ≤ 1% | calcein retention in the presence of MPP+, enantiomer comparison (SH-SY5Y cells; 3 nM PPX, 5 mM MPP+ 24 hours, p=0.035): greater calcein retention than S(−) PPX | calcein uptake after MPP+ (SH-SY5Y cells; SH-SY5Y, 5 mM MPP+ 24 hours, 30 nM PPX added 4 hours before, effect retained through 30 μM): substantially restored | forebrain oxidative stress produced by MPTP (2,3-DHBA) (oxidative stress [4]; 30 mg/kg/day in drinking water for 8 weeks): significantly reduced | forebrain oxidative stress produced by MPTP (2,3-DHBA) (oxidative stress [4]; 100 mg/kg/day in drinking water for 8 weeks): significantly reduced | MPP+-induced caspase 3 activation (caspase 3 [1]; SH-SY5Y, 5 mM MPP+ 24 hours, 1 mM PPX added 1 hour before, p<0.05 vs MPP+): suppressed | MPP+-induced increases in caspase 9 activity (caspase 9; SH-SY5Y, 5 mM MPP+ 8 hr, 1 mM PPX): blocked | dopamine agonist activity [5]: very little dopamine agonist activity

CCCN[C@H]1CCc2nc(N)sc2C1 [S(−) PPX, S(−)-2-amino-4,5,6,7-tetrahydro-6-propylaminobenzathiazole]
reduction of the increases in caspase 3 activity following BA 25–35 peptide (caspase 3 [6]; 100 μM beta amyloid 25–35): about 70% | effect on caspase 3 activity by itself (caspase 3 [6]; drug alone without toxin): no suppressive effect | tolerability [7]: well tolerated | calcein retention in the presence of MPP+, enantiomer comparison (SH-SY5Y cells): greater calcein retention than R(+) PPX | calcein uptake after MPP+ (SH-SY5Y cells): substantially restored | mean reduction of serum 2,3-DHBA concentration (oxidative stress [8]; 3–6 mg per day oral, pre vs post treatment, 3 hours after 1.3 grams aspirin, p=0.015): about 45% | average reduction of serum 2,3-DHBA normalized to salicylate levels (oxidative stress [8]; 3–6 mg per day oral, pre vs post treatment, p=0.010): 59% | individual serum levels of 2,3-DHBA pre vs post treatment (oxidative stress [8]; without exception): reduced | MPP+-induced caspase 3 activation (caspase 3 [1]): suppressed | MPP+-induced increases in caspase 9 activity (caspase 9): blocked | dopamine agonist activity [5]: potent agonist

COc1cccc2c1cc([N+](=O)[O-])c1c(C(=O)O)cc3c(c12)OCO3 [aristolochic acid, Aristolochic acid]
MPP+-induced caspase 3 activation (caspase 3 [1]; SH-SY5Y, 5 mM MPP+ 24 hours, 25 μM aristolochic acid, p<0.05 vs MPP+): prevented increases | MPP+-induced increases in caspase 9 activity (caspase 9; SH-SY5Y, 5 mM MPP+ 8 hr, 25 μM aristolochic acid): blocked

CO[C@H](C/C=C\C=C\CC/C=C/C[C@H](C)/C=C/C(=C\C(=O)O)CC(=O)O)/C(C)=C\C=C(/C)C(=O)O [bongkreckic acid, Bongkreckic acid]
MPP+-induced caspase 3 activation (caspase 3 [1]; SH-SY5Y, 5 mM MPP+ 24 hours, 250 μM bongkreckic acid, p<0.05 vs MPP+): blocked | MPP+-induced increases in caspase 9 activity (caspase 9; SH-SY5Y, 5 mM MPP+ 8 hr, 250 μM bongkreckic acid): blocked

— patent publication US7157480B2, “Use of pramipexole to treat amyotrophic lateral sclerosis” (priority 2001, dated 2007)
